Tests used:
[1] = test system: hypoxia-induced neuronal cell death; settings: 1.2μM; cited from earlier work
[2] = test system: ischemic neurodegeneration; settings: 0.45 μM; cited from earlier work
[3] = test system: human Alzheimer's disease-derived and age-matched olfactory neuroepithelial cells; assay: oxidative stress-induced cell death of olfactory neuroepithelial cells; type: cell-based; settings: via suppression of intracellular reactive oxygen species
Experimental: (§1) PAN-811 was originally developed for cancer therapy due to its ability to inhibit ribonucleotide reductase, a key enzyme required for DNA synthesis. […] PAN-811 was administered intracerebroventricularly (i.c.v.) at a dose of 50 μg per rat at 1 h after arterial occlusion. […] The effect of a single intravenous (i. v.) bolus injection of PAN-811 was also investigated. […] Mechanistically PAN-811 prevents glutamate-induced excitatory cytotoxicity, veratridine-induced sodium channel opening and related cell death, and staurosporine-induced apoptosis. […] In culture, ischemic condition results in a 19-fold increase in intracellular free calcium. PAN-811 at a dose of 5 μM reduced this elevated level by 72%. […] In addition, PAN-811 effectively suppresses oxidative stress in many ways. […] Importantly, PAN-811 manifested as a free radical scavenger in a cell free system where PAN-811 reduced 500 μM of a stable free radical diphenylpicrylhydrazyl by 70%. Taken together, PAN-811 has manifested as a potent neuroprotectant with dual drug targets—oxidative stress and free calcium.

cultured neuronal cells = type: cell-based
Experimental: as §1

[4] = test system: veratridine-induced sodium channel opening; assay: veratridine-induced sodium channel opening and related cell death; type: cell-based
Experimental: as §1

[5] = test system: staurosporine-induced apoptosis; assay: staurosporine-induced apoptosis; type: cell-based
Experimental: as §1

ribonucleotide reductase = target: T1, ribonucleotide reductase (Homo sapiens, UniProt P31350); settings: cited from earlier work
T1 sequence (P31350 1-389): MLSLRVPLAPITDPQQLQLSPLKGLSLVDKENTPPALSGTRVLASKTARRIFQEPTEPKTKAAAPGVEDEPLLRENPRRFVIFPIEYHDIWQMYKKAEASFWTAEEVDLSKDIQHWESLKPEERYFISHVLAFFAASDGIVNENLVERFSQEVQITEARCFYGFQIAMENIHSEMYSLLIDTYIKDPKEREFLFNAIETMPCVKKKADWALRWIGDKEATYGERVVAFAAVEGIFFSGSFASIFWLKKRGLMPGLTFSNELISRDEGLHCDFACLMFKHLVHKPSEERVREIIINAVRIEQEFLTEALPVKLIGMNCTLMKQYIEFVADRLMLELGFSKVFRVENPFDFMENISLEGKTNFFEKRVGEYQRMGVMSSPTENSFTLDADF
T1 sequence (P23921 1-792 partner): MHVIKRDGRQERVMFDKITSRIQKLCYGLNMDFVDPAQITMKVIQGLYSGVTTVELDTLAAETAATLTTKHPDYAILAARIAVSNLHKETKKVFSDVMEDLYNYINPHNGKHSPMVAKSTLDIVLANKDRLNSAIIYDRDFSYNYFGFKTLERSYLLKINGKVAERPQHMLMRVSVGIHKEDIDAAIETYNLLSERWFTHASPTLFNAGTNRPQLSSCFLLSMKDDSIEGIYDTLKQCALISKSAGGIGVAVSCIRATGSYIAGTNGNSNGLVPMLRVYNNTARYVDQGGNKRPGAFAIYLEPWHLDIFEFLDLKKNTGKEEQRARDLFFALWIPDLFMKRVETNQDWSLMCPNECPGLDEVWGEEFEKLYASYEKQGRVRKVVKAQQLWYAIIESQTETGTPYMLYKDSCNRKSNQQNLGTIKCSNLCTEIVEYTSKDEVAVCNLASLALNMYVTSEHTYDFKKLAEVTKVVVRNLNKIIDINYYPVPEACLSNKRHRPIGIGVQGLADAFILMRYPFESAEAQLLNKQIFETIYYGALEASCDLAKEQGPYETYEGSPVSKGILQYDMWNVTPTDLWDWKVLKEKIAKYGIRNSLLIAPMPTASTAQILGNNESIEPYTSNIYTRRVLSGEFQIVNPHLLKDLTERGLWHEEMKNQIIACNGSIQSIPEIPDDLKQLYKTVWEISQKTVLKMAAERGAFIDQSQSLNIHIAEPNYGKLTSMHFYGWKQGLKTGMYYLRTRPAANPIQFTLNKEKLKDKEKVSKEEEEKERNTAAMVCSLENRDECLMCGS

NC(=S)N/N=C/c1ncccc1N [PAN-811, 3-aminopyridine-2-carboxaldehyde thiosemicarbazone]
halt of hypoxia-induced neuronal cell death [1]: completely halted | block of ischemic neurodegeneration [2]: fully blocked | inhibition of oxidative stress-induced cell death [3]: inhibited | prevention of glutamate-induced excitatory cytotoxicity (cultured neuronal cells): prevents | prevention of veratridine-induced sodium channel opening and related cell death [4]: prevents | prevention of staurosporine-induced apoptosis [5]: prevents | inhibition of ribonucleotide reductase (ribonucleotide reductase): inhibit
